According to patent publication US10537611B2, “Methods of treating lung cancer” (Five Prime Therapeutics, Inc., priority 2011, dated 2020):

Legend:
U-118 xenograft model = assay: U-118 xenograft tumor growth inhibition; format: in vivo, mouse; details: Glioblastoma U-118; IP 15 mg/kg BIW; non-amplified; P ns
Experimental: Percentage tumor growth inhibition by FGFR1-ECD.339-Fc was determined by area-under-the-curve (AUC) analysis of xenograft growth curves treated with FGFR1-ECD.339-Fc compared to albumin control. […] The difference in FGFR1-ECD.339-Fc-mediated xenograft inhibition between FGFR1 gene amplified and non-amplified lung cancer xenograft models was statistically significant (P=0.0333).
Also shown in Table 5 are the dosing schedule for FGFR1-ECD.339-Fc in a mouse xenograft model, the percent tumor growth inhibition (TGI (%)) and the statistical significance of the tumor growth inhibition (P Value), as well as whether the FGFR1 gene is amplified in the cell line.
An exemplary xenograft experiment is as follows. For Caki-1 and MSTO-211H, five million cells were implanted subcutaneously over the right flank of SCID mice (N=10 per group). […] Representative tumor growth curves are shown for a renal cancer, Caki-1, (A), and mesothelioma, MSTO-211H, (B) xenograft cancer model. […] In the MSTO-211H mesothelioma model, FGFR1-ECD.339-Fc administration reduced tumor growth (FIG. 16b) by 64% (P<0.0001).

[1] = system: VEGF-A induced angiogenesis; assay: Matrigel plug assay, VEGF-A induced angiogenesis; format: in vivo, mouse; details: C57BL/6 mice; 15 or 45 mg/kg
Experimental: Recombinant human FGF-2 (final concentration 250 ng/ml; Peprotech) and/or recombinant human VEGF-A (final concentration 100 ng/ml; Peprotech) were added to matrigel (BD Biosciences, Franklin Lakes, N.J.) with sodium heparin (2 units/ml; Sigma). FGF-2 and/or VEGF-A containing matrigel plugs (one per animal) were implanted subcutaneously in the abdomen region of C57BL/6 mice (Charles River, Wilmington, Mass.). FGFR1-ECD.339-Fc was administered by tail vein injection on days 1, 4, and 7 post-matrigel implantation. On day 9, plugs were excised and processed for hematoxylin and eosin (H&E) staining. Digital images of the stained matrigel sections were generated using a Retiga 2000R digital camera (QImaging, Burnaby, BC). Image analysis was performed using Image-Pro Plus 5.1 (Media Cybernetics Inc., Silver Spring, Md.). Neovascularization was defined as the cellular response in the Matrigel plugs, consisting of newly formed blood vessels and migrated cells.

[2] = system: lung cancer cell lines without FGFR1 gene amplification; assay: CellTiter-Glo cell number, non-amplified lung cancer cell lines (average); format: cell-based, human; details: averaged across all FBS concentrations, vs control ECD-Fc
Experimental: To determine the impact of FGFR1-ECD.339-Fc on lung cancer cell lines in tissue culture, cells were plated in a Microtest™ 96-well tissue culture plate (Becton Dickenson, Franklin Lakes, N.J.) at a density of 5×10^3 cells/well in medium containing 10%, 1% or 0.1% FBS in the presence or absence of 15 μg/ml FGFR1-ECD.339-Fc (SEQ ID NO: 6) or an unrelated ECD-Fc fusion protein (as a negative control). Plates were incubated at 37° C. at 5% CO2 for 4 days and then assayed to determine the impact of FGFR1-ECD.339-Fc on cell number and proliferation.
To determine cell number the CellTiter-Glo® Luminescent Cell Viability Assay (Promega, Madison, Wis.) was employed. CellTiter-Glo® is a homogeneous method of determining the number of viable cells in culture based on quantitation of the ATP present, an indicator of metabolically active cells. In brief, CellTiter-Glo® Reagent was added to each well of the tissue culture plate at a volume equal to the volume of cell culture medium present in each well (100 μl), the contents mixed for 2 minutes on an orbital shaker to induce cell lysis and then the plate incubated for 10 minutes at room temperature. Luminescence was then determined on an EnVision™ Multilabel Plate Reader (PerkinElmer, Boston, Mass.) with a 0.2 second integration time. Results were expressed as relative light units (RLU)/well. […]

mitogenic FGFs = assay: Binding to mitogenic FGFs relative to FGF-23
Experimental: FGFR1-ECD.339-Fc binds to the mitogenic FGFs with 10 to 100-fold higher affinity than to FGF-23. […] The potential biological impact of this relatively weak FGFR1-ECD.339-Fc/FGF-23 binding was investigated in rats following four weekly doses of FGFR1-ECD.339-Fc at a dose range of 10-200 mg/kg/qwk.

“FGFR1-ECD.339-Fc: human FGFR1 extracellular domain ending at amino acid 339 fused to an Fc; SEQ ID NO: 6 (mature form), SEQ ID NO: 5 with signal peptide” was tested, and the “TGI (%)” value (U-118 xenograft model) was 36%, the “in vivo angiogenesis, matrigel plug with VEGF-A only” value [1] was “completely blocked” and the “average decrease in cell number (CellTiterGlo RLU)” value [2] was 9.33%. The “higher affinity for mitogenic FGFs than for FGF-23” value (mitogenic FGFs) was 10 to 100 fold.
